Where “and” joins values, the source holds several entries; their conditions need not be identical. Identical values can stand only once. Like-named read-outs stand apart in the source and are kept apart here.
Key:
Recombinant human PDE5A = Recombinant human PDE5A (Homo sapiens, UniProt O76074); experiment: PDE inhibition assay against PDE5A (Cyclic Nucleotide Phosphodiesterase Assay Kit, spectrophotometric); assay type: biochemical; settings: in vitro; for IC50: read-out: Inhibitory activity (IC50) PDE5A
[1] = biological target: T1, Phosphodiesterase I (PDEI) from Crotalus adamanteus venom (Crotalus adamanteus, UniProt J3SEZ3); assay type: binding
[2] = biological target: T1, Phosphodiesterase I (PDEI) from Crotalus adamanteus venom; assay type: biochemical; settings: read-out: Inhibitory activity (IC50) PDEI

T1 sequence (J3SEZ3 24-851 limits assumed): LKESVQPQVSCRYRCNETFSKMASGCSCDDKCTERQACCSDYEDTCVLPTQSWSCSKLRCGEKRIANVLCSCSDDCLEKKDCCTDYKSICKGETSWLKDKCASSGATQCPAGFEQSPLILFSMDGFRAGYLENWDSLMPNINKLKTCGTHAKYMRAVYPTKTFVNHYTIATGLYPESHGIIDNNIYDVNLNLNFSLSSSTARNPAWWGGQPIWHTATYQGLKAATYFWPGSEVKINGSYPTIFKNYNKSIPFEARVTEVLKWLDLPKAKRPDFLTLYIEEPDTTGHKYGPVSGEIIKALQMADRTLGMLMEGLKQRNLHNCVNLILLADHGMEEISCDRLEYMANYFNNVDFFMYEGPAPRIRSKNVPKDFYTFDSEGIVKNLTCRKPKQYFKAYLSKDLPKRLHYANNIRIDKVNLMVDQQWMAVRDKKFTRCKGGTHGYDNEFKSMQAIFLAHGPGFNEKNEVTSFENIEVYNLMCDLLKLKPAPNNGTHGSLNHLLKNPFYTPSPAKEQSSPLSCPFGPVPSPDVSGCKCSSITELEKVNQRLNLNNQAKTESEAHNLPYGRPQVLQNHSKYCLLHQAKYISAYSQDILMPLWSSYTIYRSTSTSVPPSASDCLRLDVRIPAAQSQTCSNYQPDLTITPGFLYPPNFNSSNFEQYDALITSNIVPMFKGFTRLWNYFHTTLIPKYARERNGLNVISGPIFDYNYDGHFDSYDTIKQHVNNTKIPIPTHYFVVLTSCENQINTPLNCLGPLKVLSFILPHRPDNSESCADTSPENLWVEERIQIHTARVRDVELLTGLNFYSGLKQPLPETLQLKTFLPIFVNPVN

| Compound | IC50 (Recombinant human PDE5A) [µM] | Enhancement factor with PDEI ([1]; n = 3) | Binding to PDEI (in words) [1] | IC50 [2] [µM] | Enhancement factor with PDEI [1] | Activity against PDE5A (in words) (Recombinant human PDE5A) |
| --- | --- | --- | --- | --- | --- | --- |
| C[C@@H]1CC[C@]2(C(=O)O)CC[C@]3(C)C(=CCC4[C@@]5(C)CC[C@H](O)[C@](C)(C(=O)O)C5CC[C@]43C)C2[C@]1(C)O (some centres unmarked) [Ilexgenin A (11), Ilexgenin A] | 177 | 23.08 ± 0.44% and 30.82 ± 0.31% | – | – | – | – |
| C[C@@H]1CC[C@]2(C(=O)OC3OC(CO)C(O)C(O)C3O)CC[C@]3(C)C(=CCC4[C@@]5(C)CC[C@H](O)[C@](C)(C(=O)O)C5CC[C@]43C)C2[C@]1(C)O (some centres unmarked) [Ilexsaponin A1(9), Ilexsaponin A1] | 22.4 | 11.68 ± 0.31% and 18.59 ± 0.65% | low binding efficiency | – | – | – |
| C[C@H]1CC[C@]2(C(=O)O)CC[C@]3(C)C(=CC[C@@H]4[C@@]5(C)CC[C@H](O[C@@H]6OC[C@@H](O)[C@H](O)[C@H]6O[C@@H]6O[C@H](CO)[C@@H](O)[C@H](O)[C@H]6O)C(C)(C)[C@@H]5CC[C@]43C)[C@@H]2[C@]1(C)O [Ilexsaponin B1 (10), Ilexsaponin B1] | 1800 | – | – | 854 | 9.20 ± 0.62% and 15.54 ± 0.21% | – |
| C[C@@H]1O[C@@H](O[C@H]2[C@H](O[C@H]3[C@H](O[C@H]4CC[C@]5(C)[C@H]6CC=C7[C@H]8[C@](C(=O)O)(CC[C@H](C)[C@@]8(C)O)CC[C@@]7(C)[C@]6(C)CC[C@H]5C4(C)C)OC[C@@H](O)[C@@H]3O)O[C@H](CO)[C@@H](O)[C@@H]2O)[C@H](O)[C@H](O)[C@H]1O [Ilexsaponin B2 (8), Ilexsaponin B2] | 48.8 | – | strongest PDEI ligand | 478 | 28.73 ± 0.55% and 41.85 ± 0.86% | – |
| O=C(C=Cc1ccc(O)c(O)c1)OC1CC(O)(C(=O)O)CC(O)C1OC(=O)C=Cc1ccc(O)c(O)c1 (centres unmarked) [Isochlorogenic acid B (3), Isochlorogenic acid B] | 193 | 19.15 ± 0.77% and 25.90 ± 1.30% | – | – | – | – |
| O=C(C=Cc1ccc(O)c(O)c1)OC1CC(O)(C(=O)O)CC(O)C1OC(=O)C=Cc1ccc(O)c(O)c1 (centres unmarked) [Isochlorogenic acid C (5), Isochlorogenic acid C] | – | 26.73 ± 0.41% and 40.03 ± 0.14% | quite strong bindings to PDEI | – | – | not active |

From publication PMC5382325, “Rapid Screening of Potential Phosphodiesterase Inhibitors from the Roots of Ilex pubescens Hook. et Arn. Using a Combination of Ultrafiltration and LC–MS” (Evidence-based Complementary and Alternative Medicine : eCAM, 2017)
